Measured values: patent US20080269213A1, “8-Hydroxyquinoline compounds and methods thereof” (Wyeth, priority 2006, published 2008)
Where “and” joins values, the source holds several entries; their conditions need not be identical. Equal values may be shown once. Read-outs that look alike come from different tables or passages of the source.

Experiments:
[1] = biological target: T1, Agg-1 (Homo sapiens, UniProt O75173); assay: Agg-1 FRET assay; type: biochemical; details: for inhibition at 7.4 µM: @ 7400 nM; for inhibition at 66.7 µM: % inhibition @ 66.7 μM; for inhibition at 22 µM: @ 22000 nM
T1 sequence (O75173 213-837): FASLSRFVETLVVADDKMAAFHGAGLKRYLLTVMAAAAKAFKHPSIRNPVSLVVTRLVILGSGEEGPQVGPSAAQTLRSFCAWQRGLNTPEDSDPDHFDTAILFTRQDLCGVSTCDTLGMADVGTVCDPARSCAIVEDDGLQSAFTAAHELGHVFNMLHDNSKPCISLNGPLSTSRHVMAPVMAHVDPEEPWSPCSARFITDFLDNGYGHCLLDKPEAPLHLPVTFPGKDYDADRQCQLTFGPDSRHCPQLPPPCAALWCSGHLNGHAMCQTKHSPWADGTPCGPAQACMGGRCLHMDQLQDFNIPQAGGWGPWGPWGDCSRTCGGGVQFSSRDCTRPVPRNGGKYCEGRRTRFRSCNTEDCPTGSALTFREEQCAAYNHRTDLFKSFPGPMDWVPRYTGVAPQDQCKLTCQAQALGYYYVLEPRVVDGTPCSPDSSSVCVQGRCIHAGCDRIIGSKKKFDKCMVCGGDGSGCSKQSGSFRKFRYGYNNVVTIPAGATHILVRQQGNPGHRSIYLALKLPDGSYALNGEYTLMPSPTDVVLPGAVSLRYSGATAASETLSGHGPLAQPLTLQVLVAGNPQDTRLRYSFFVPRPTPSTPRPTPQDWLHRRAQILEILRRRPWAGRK
Text: The Agg-1/Agg-2 FRET data for N-[(8-hydroxyquinolin-2-yl)(phenyl)methyl]-2-phenoxyacetamide and 2-{[(phenoxyacetyl)amino](phenyl)methyl}quinolin-8-yl phenoxyacetate is presented in Table 1.

[2] = biological target: T2, recombinant human Aggrecanase-2 Agg2-Phe628 (Homo sapiens, UniProt Q9UNA0); assay: Aggrecanase 2 in vitro enzyme assay (Agg-2 FRET, quenched fluorescent peptide substrate); type: biochemical; parameters: purified recombinant human Aggrecanase-2 Agg2-Phe628 (MW=41,737); This is a truncated form of full-length human aggrecanase-2; made in house; host or cells: CHO cells; details: for inhibition at 11 µM: @ 11000 nM; for Agg-2 FRET Median PCT INHIB: concentration not given
T2 sequence (Q9UNA0 262-628 limits assumed): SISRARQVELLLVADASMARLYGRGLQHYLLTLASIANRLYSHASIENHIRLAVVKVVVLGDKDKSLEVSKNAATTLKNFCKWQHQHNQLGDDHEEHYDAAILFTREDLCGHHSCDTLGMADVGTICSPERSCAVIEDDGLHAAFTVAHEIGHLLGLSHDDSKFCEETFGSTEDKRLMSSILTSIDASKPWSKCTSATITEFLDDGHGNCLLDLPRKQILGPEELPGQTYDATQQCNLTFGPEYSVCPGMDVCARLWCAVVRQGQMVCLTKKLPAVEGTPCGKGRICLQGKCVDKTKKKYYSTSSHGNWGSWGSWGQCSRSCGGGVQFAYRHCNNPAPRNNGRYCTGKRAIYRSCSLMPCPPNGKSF
Outline: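 Kinetic fluorescence (λex 340, λem 420 nm) monitored over 40 min at 30 °C after adding 25 μM final Abz/Dnp brevican-based quenched peptide. Enzyme: recombinant truncated human Agg2-Phe628 from CHO, 0.5 μg/ml final, mixed with inhibitor first; buffer HEPES pH 7.5 with NaCl, CaCl2, CHAPS, glycerol; compounds in duplicate.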

[3] = read-out: Agg-2 FRET Median IC50
[4] = IC50, read-out: Agg-1 IC50 (μM) or % Inhibition
[5] = read-out: Agg-2 IC50 (μM) or % Inhibition
[6] = read-out: Agg-1 IC50 (μM) or % Inhibition

`O=C(NC(c1ccc2c(c1)OCO2)c1cc(Cl)c2cccnc2c1O)OCc1ccccc1` (stereo not shown) [benzyl [1,3-benzodioxol-5-yl(5-chloro-8-hydroxyquinolin-7-yl)methyl]carbamate] gave an IC50 ([1]; read-out: Agg1 IC50) greater than 3 µM, an IC50 ([2]; read-out: Agg2 IC50) of 1560 nM and an IC50 [2, 3] of 1560 nM.
In the case of `O=C(COc1ccccc1)NC(c1cccc2c1OCO2)c1cc(Cl)c2cccnc2c1O` (stereo not shown) [N-[1,3-benzodioxol-4-yl(5-chloro-8-hydroxyquinolin-7-yl)methyl]-2-phenoxyacetamide], the inhibition at 7.4 µM ([1]; read-out: Agg1 %) is reported as 54% and the IC50 ([2]; read-out: Agg2 IC50) is reported as 1400 nM.
`O=C(COc1ccccc1)NC(Cc1ccc2cccnc2c1O)c1ccccc1` (stereo not shown) showed an IC50 [1, 4] of 2.1 µM and an inhibition at 100 µM [2, 5] of 59%.
In the case of `O=C(NC(Cc1ccccc1)c1cc(Cl)c2cccnc2c1O)OCc1ccccc1` (stereo not shown) [benzyl [1-(5-chloro-8-hydroxyquinolin-7-yl)-2-phenylethyl]carbamate], the IC50 ([1]; read-out: Agg1 IC50) is reported as greater than 67 µM and the IC50 ([2]; read-out: Agg2 IC50) is reported as greater than 28000 nM.
Work on `O=C(COc1ccc(-c2ccccc2)cc1)NC(c1ccccc1)c1cc(Cl)c2cccnc2c1O` (stereo not shown) [2-(biphenyl-4-yloxy)-N-[(5-chloro-8-hydroxyquinolin-7-yl)(phenyl)methyl]acetamide] yielded an IC50 ([1]; read-out: Agg1 IC50) of 7.4 to 20 µM and an IC50 ([2]; read-out: Agg2 IC50) of 2000 nM.
Compound `COc1ccc(Oc2cccc(C(NC(=O)COc3ccccc3)c3cc(Cl)c4cccnc4c3O)c2)cc1` (stereo not shown) [Example 128, N-{(5-chloro-8-hydroxyquinolin-7-yl)[3-(4-methoxyphenoxy)phenyl]methyl}-2-phenoxyacetamide] has an inhibition at 7.4 µM ([1]; read-out: Agg1 %) of 57% and an IC50 ([2]; read-out: Agg2 IC50) of 1100 nM.
`O=C(COc1ccccc1)N[C@H](c1ccccc1Cl)c1cc(Cl)c2cccnc2c1O` [N-[(S)-(5-chloro-8-hydroxyquinolin-7-yl)(2-chlorophenyl)methyl]-2-phenoxyacetamide] was tested, and the inhibition at 22.2 µM ([1]; @ 22200 nM, read-out: Agg1 %) was 54%, the IC50 ([2]; read-out: Agg2 IC50) was 876 nM and the IC50 [2, 3] was 876 nM and 1340 nM.
`O=C(COc1ccccc1)NC(c1cc2n(n1)CSC2)c1cc(Cl)c2cccnc2c1O` (stereo not shown) [Example 174, N-[(5-chloro-8-hydroxyquinolin-7-yl)(4H-pyrazolo[1,5-c][1,3]thiazol-2-yl)methyl]-2-phenoxyacetamide] was tested, and the “Agg1 %” value ([1]; @ 7000-22000 nM) was 42% @ 7000-22000 and the inhibition at […] ([2]; @ 1900 nM) was 40%.
Compound `O=C(COc1ccccc1)NC(c1ccc2c(c1)OCCO2)c1cc(Cl)c2cccnc2c1O` (stereo not shown) [N-[(5-chloro-8-hydroxyquinolin-7-yl)(2,3-dihydro-1,4-benzodioxin-6-yl)methyl]-2-phenoxyacetamide] has an inhibition at 7.4 µM ([1]; read-out: Agg1 %) of 51% and an IC50 ([2]; read-out: Agg2 IC50) of 850 nM.
`O=C(COc1ccccc1)NC(c1cc(Cl)c2cccnc2c1O)c1cc2ccccc2c2ccccc12` (stereo not shown) [N-[(5-chloro-8-hydroxyquinolin-7-yl)(9-phenanthryl)methyl]-2-phenoxyacetamide] showed an inhibition at 33 µM ([1]; @ 33000 nM, read-out: Agg1 %) of 54% and an inhibition at 11 µM [2] of 51%.
Work on `Cc1ccc(-c2cccc(C(Cc3cc(Cl)c4cccnc4c3O)NC(=O)COc3ccccc3)c2)s1` (stereo not shown) yielded an inhibition at 66.7 µM [1, 6] of 42% and an inhibition at 22 µM [2, 5] of 58%.
In the case of `O=C(CNCc1cccnc1)NC(c1ccccc1)c1cc(Cl)c2cccnc2c1O` (stereo not shown) [Example 228, N-[(5-chloro-8-hydroxyquinolin-7-yl)(phenyl)methyl]-N2-(pyridin-3-ylmethyl)glycinamide], the IC50 ([1]; read-out: Agg1 IC50) is reported as greater than 67 µM, the “Agg-2 FRET Median PCT INHIB” value [2] is reported as 32% and the IC50 ([2]; read-out: Agg2 IC50) is reported as greater than 11000 nM.
In the case of `O=C(NC(c1ccccc1Cl)c1cc(Cl)c2cccnc2c1O)OCc1ccccc1` (stereo not shown) [benzyl [(5-chloro-8-hydroxyquinolin-7-yl)(2-chlorophenyl)methyl]carbamate], the IC50 ([1]; read-out: Agg1 IC50) is reported as greater than 67 µM, the “Agg-2 FRET Median PCT INHIB” value [2] is reported as 56% and the IC50 ([2]; read-out: Agg2 IC50) is reported as roughly 2500 nM.
Compound `O=C(COc1ccccc1)NC(/C=C/c1ccccc1)c1cc(Cl)c2cccnc2c1O` (stereo not shown) [N-[(2E)-1-(5-chloro-8-hydroxyquinolin-7-yl)-3-phenylprop-2-en-1-yl]-2-phenoxyacetamide] has an inhibition at 7.5 µM ([1]; @ 7500 nM, read-out: Agg1 %) of 50% and an IC50 ([2]; read-out: Agg2 IC50) of 1600 nM.
For `O=C(CNCc1cccc2ccccc12)NC(c1ccccc1)c1cc(Br)c2cccnc2c1O` (stereo not shown) [Example 222, N-[(5-bromo-8-hydroxyquinolin-7-yl)(phenyl)methyl]-N2-(1-naphthylmethyl)glycinamide], the IC50 ([1]; read-out: Agg1 IC50) was 7.4 to 20 µM and the IC50 ([2]; read-out: Agg2 IC50) was 1200 to 3700 nM.
Work on `O=C(COc1ccccc1)NC(c1ccccc1N1CCOCC1)c1cc(Cl)c2cccnc2c1O` (stereo not shown) [N-[(5-chloro-8-hydroxyquinolin-7-yl)(2-morpholin-4-ylphenyl)methyl]-2-phenoxyacetamide] yielded an inhibition at 22 µM ([1]; read-out: Agg1 %) of 59% and an inhibition at […] ([2]; @ 1200 nM) of 43%.
`CS(=O)(=O)Nc1cccc(C(NC(=O)COc2ccccc2)c2cc(Cl)c3cccnc3c2OS(C)(=O)=O)c1` (stereo not shown) [Example 203, 5-chloro-7-{{3-[(methylsulfonyl)amino]phenyl}[(phenoxyacetyl)amino]methyl}quinolin-8-yl methanesulfonate] was tested, and the IC50 ([1]; read-out: Agg1 IC50) was greater than 20 µM, the “Agg-2 FRET Median PCT INHIB” value [2] was 20% and the IC50 ([2]; read-out: Agg2 IC50) was greater than 30000 nM.
With `O=C(O)Cc1cccc(C(NC(=O)COc2ccccc2)c2cc(Cl)c3cccnc3c2O)c1` (stereo not shown) [Example 208, (3-{(5-chloro-8-hydroxyquinolin-7-yl)[(phenoxyacetyl)amino]methyl}phenyl)acetic acid] the inhibition at […] ([1]; @ 2500 nM, read-out: Agg1 %) was 37%, the IC50 ([2]; read-out: Agg2 IC50) was 4480 nM and the IC50 [2, 3] was 4480 nM.
In the case of `O=C(COc1ccccc1)NC(c1ccc(-c2ccccc2)cc1)c1cc(Cl)c2cccnc2c1O` (stereo not shown) [N-[biphenyl-4-yl(5-chloro-8-hydroxyquinolin-7-yl)methyl]-2-phenoxyacetamide], the IC50 ([1]; read-out: Agg1 IC50) is reported as greater than 200 µM and the IC50 ([2]; read-out: Agg2 IC50) is reported as 5400 nM.
`CN(C)Cc1ccc(C(Cc2cc(Cl)c3cccnc3c2O)NC(=O)COc2ccccc2)o1` (stereo not shown) gave an IC50 [1, 4] of 16.8 µM and an inhibition at 200 µM [2, 5] of 68%.
Compound `O=C(COc1ccccc1)NC(c1cc(Cl)c2cccnc2c1O)c1ccnc2ccccc12` (stereo not shown) [N-[(5-chloro-8-hydroxyquinolin-7-yl)(quinolin-4-yl)methyl]-2-phenoxyacetamide] has an inhibition at 11 µM ([1]; @ 11000 nM, read-out: Agg1 %) of 34% and an inhibition at 2.8 µM ([2]; @ 2800 nM) of 45%.
`Cc1ccc(-c2cccc(C(Cc3cc(Cl)c4cccnc4c3O)NC(=O)C(C)(C)Oc3ccc(Cl)cc3)c2)s1` (stereo not shown) gave an inhibition at 66.7 µM [1, 6] of 47% and an inhibition at 22 µM [2, 5] of 51%.
Compound `O=C(COc1ccccc1)NC(c1cccc(Oc2ccc(Cl)cc2)c1)c1cc(Cl)c2cccnc2c1O` (stereo not shown) [Example 129, N-{(5-chloro-8-hydroxyquinolin-7-yl)[3-(4-chlorophenoxy)phenyl]methyl}-2-phenoxyacetamide] has an inhibition at 22 µM ([1]; read-out: Agg1 %) of 51% and an inhibition at 11 µM [2] of 52%.
Work on `COc1ccccc1C(NC(=O)COc1ccccc1)c1cc(Cl)c2cccnc2c1O` (stereo not shown) [Example 122, N-[(5-chloro-8-hydroxyquinolin-7-yl)(2-methoxyphenyl)methyl]-2-phenoxyacetamide] yielded an inhibition at 667 µM ([1]; @ 667000 nM, read-out: Agg1 %) of 48%, an IC50 ([2]; read-out: Agg2 IC50) of 2300 nM and an IC50 [2, 3] of 2340 nM.
`O=C(NC(c1ccccn1)c1cc(Cl)c2cccnc2c1O)OCc1ccccc1` (stereo not shown) [Example 183, benzyl [(5-chloro-8-hydroxyquinolin-7-yl)(pyridin-2-yl)methyl]carbamate] was tested, and the IC50 ([1]; read-out: Agg1 IC50) was greater than 67 µM, the “Agg-2 FRET Median PCT INHIB” value [2] was 50% and the IC50 ([2]; read-out: Agg2 IC50) was roughly 2500 nM.
With `O=C(COc1ccccc1)NC(c1ccc(C#Cc2ccccc2)cc1)c1cc(Cl)c2cccnc2c1O` (stereo not shown) [Example 141, N-{(5-chloro-8-hydroxyquinolin-7-yl)[4-(phenylethynyl)phenyl]methyl}-2-phenoxyacetamide] the inhibition at 7.4 µM ([1]; read-out: Agg1 %) was 48%, the inhibition at […] ([2]; @ 1200 nM) was 58% and the “Agg-2 FRET Median PCT INHIB” value [2] was 50%.
`O=C(CN1CCC(c2ccccc2)CC1)NC(c1ccccc1)c1cc(Cl)c2cccnc2c1O` (stereo not shown) [N-[(5-chloro-8-hydroxyquinolin-7-yl)(phenyl)methyl]-2-(4-phenylpiperidin-1-yl)acetamide] was tested, and the IC50 ([1]; read-out: Agg1 IC50) was roughly 11 µM, the “Agg-2 FRET Median PCT INHIB” value [2] was 57% and the IC50 ([2]; read-out: Agg2 IC50) was roughly 3700 nM.
